Reference: patent publication US20240269157A1, “COMPOSITIONS AND METHODS FOR OVERCOMING MICROENVIRONMENT-MEDIATED RESISTANCE VIA E-SELECTIN TARGETING” (GLYCOMIMETICS, INC., priority 2021, published 2024)

Legend:
[1] = test system: patient-derived primary AML xenograft (JAK2 and c-Kit); assay: PDX model (mutations in JAK2 and c-Kit), LSC retention and CyTOF of BM cells; format: in vivo, mice
From the text: Intra-vital imaging was employed to investigate the effects of Compound B on AML cell motility in the bone marrow of triple reporter mice (Blood: dextran-TRITC; Host T-cells: DsRed; Host myeloid CD11 cells: EYFP) injected with AML cells carrying a turquoise fluorescent protein reporter gene. […] Individual cells were dislodged from the niche and traveled long-distance (FIG. 17C). The combined inhibition of E-selectin and CXCR4 depleted bone marrow vascular niche areas of leukemia cells.
In order to better understand how the augmented AML mobilization improves the efficacy of AML therapy, BM cells from PDX mice treated for 2 weeks with Compound A, Compound B, venetoclax/HMA (Ven/HMA), and their combinations were analyzed by single-cell proteomics (CyTOF). […] However, pharmacological antagonists of E-selectin (Compound A) or E-selectin/CXCR4 (Compound B) protected endothelial cells from Ven/HMA-induced detrimental insults through upregulation of survival signaling cascades, including pAKT, pERK, pMAPK and […] eNOS expression in endothelial cells compared to Ven/HMA treatment alone.

[2] = test system: human MSC; assay: CD44 surface expression in MSC exposed to soluble E-selectin; format: cell-based; details: MSC in vitro
From the text: To determine if E-selectin has indispensable effects in bone marrow niche component cells, healthy donor derived-mesenchymal stroma cells (MSC) were exposed to increasing concentrations of E-selectin. […] Abrogation of E-selectin binding by Compound A diminished CD44 expression in vitro.

[3] = test system: KG1 cells; assay: Global DNA methylation (5-mC) ELISA in KG1 cells; details: 100 nM 5-AZA, 96 hours (untreated 0.33%)
Protocol: Prior to assessing the effect of 5-AZA on specific gene expression, its effect on global DNA methylation was assessed by specifically measuring levels of 5-methylcytosine (5-mC) in a colorimetric ELISA-like reaction. DNA was isolated from cell pellets using a DNA Isolation Kit for Cells and Tissues (Roche Catalog No. 11 814 770 001). DNA was quantified using a DNA Quantification Assay Kit (BioVision Catalog No. K539-200). Global DNA methylation was measured using the MethylFlash™ Global DNA Methylation (5-mC) ELISA Easy Kit (EpiGentek Catalog No. P-1030).
DNA was isolated and purified from cell pellets and evaluated for 5-mC levels.

[4] = test system: KG1 cells; assay: Real time qPCR of mRNAs encoding glycosyltransferases in KG1 cells; format: cell-based, human; parameters: key to AVG ΔCt (Ct(GOI) − Ave Ct (HKG)) Test Sample: Ct of gene of interest minus average housekeeping-gene Ct; key to Fold Change Test Sample/Control Sample: ratio of 2^(−ΔCt) treated / 2^(−ΔCt) control; details: KG1, 100 nM 5-AZA, 96 hours
Protocol: To address the hypothesis that hypomethylation led to enhanced expression of glycosyltransferases, KG1 cells were cultured in the presence or absence of 100 nM 5-AZA for 96 hours followed by real time qPCR analysis of mRNAs encoding relevant glycosyltransferases. Fresh 5-AZA was added to the culture daily. Approximately 1×10^6 cells were pelleted by centrifugation at 250×g for 10 minutes then snap frozen on dry ice. Total RNA was extracted and purified using a QIAGEN RNeasy® Kit with an on-column DNase treatment step (QIAGEN Cat. No. 74104). The fold-change (2^(−Delta Ct)) is the normalized gene expression (2^(−Delta Ct)) in the 5-AZA treated sample divided the normalized gene expression (2^(−Delta Ct)) in the control sample.
In Table 1, fold-regulation represents fold-change results in a biologically meaningful way. Fold-change values greater than one indicate a positive- or an up-regulation, and the fold-regulation is equal to the fold-change. Fold-change values less than one indicate a negative or down-regulation, and the fold-regulation is the negative inverse of the fold-change. Additionally, p-values in Table 1 were calculated based on a Student's t-test of the replicate 2^(−Delta Ct) values for each gene in the control group and treatment groups.

[5] = test system: FUT7 promoter; assay: Targeted Next-Gen bisulfite sequencing of the FUT7 promoter region in KG1 cells; format: cell-based, human; details: dose and time dependent
Protocol: To test whether the increased expression of FUT7 mRNA in KG1 cells treated with 5-AZA could be due to hypomethylation of the FUT7 promoter, targeted Next-Gen bisulfite sequencing of the FUT7 promoter region was performed. The methylation status of 101 CpG sites surrounding the transcription start site was determined. […] Cells were collected after 96 hours of treatment and cell pellets were prepared. Extracted DNA samples (500 ng) were bisulfite modified using the EZ-96 DNA Methylation-Direct Kit™ (ZymoResearch; Irvine, CA; Catalog No. D5023) per the manufacturer's protocol with minor modification. The bisulfite modified DNA samples were eluted using M-elution buffer in 46 μL. Following DNA extraction and bisulfite modification, 26 regions surrounding the transcription start site were evaluated by PCR/NGS to assess the methylation status of 101 CpG sites. All bisulfite modified DNA samples were amplified using separate multiplex or simplex PCRs. PCRs included 0.5 units of HotStarTaq (Qiagen; Hilden, Germany; Catalog No. 203205), 0.2 μM primers, and 3 μL of bisulfite-treated DNA in a 20 μL reaction.

[6] = in combination with Ven/HMA, 2 weeks, CyTOF of BM cells

In the case of `CCC1CC(C(=O)NCCNC(=O)CCOCCOCCOCCOCCOCCOCCOCCOCCOCCOCCOCCOC)C[C@@H](O[C@@H]2OC(CO)[C@H](O)C(O[C@@H](CC3CCCCC3)C(=O)O)C2NC(C)=O)[C@@H]1OC1O[C@@H](C)[C@H](O)C(O)[C@@H]1O` (stereo partly shown) [Compound A], the “levels of E-selectin ligand, mTOR, pFAK, pRb, cMyc” value [1, 6] is reported as “diminished”, the “p21 and cleaved caspase3” value [1, 6] is reported as “increasing” and the “protection of endothelial cells from Ven/HMA-induced detrimental insults” value ([1]; upregulated pAKT, pERK, pMAPK, decreased eNOS vs Ven/HMA alone) is reported as “protected”. For the same molecule, the CD44 expression [2] was “diminished”.
For `Nc1ncn([C@@H]2O[C@H](CO)[C@@H](O)[C@H]2O)c(=O)n1` [5-azacitidine], the “level of 5-mC” value [3] was 0.12%, the “2^-ΔCt Test Sample” value ([4]; ACTB) was 5.5E−01 and the “AVG ΔCt (Ct(GOI) − Ave Ct (HKG)) Test Sample” value (from here on “AVG ΔCt”) ([4]; ACTB) was 0.87. The “Fold Change Test Sample/Control Sample” value ([4]; ACTB) was 0.58, the “Fold Up- or Down-Regulation Test Sample/Control Sample” value ([4]; ACTB) was −1.73 and the “2^-ΔCt Test Sample” value ([4]; B3GNT5) was 2.3E−03. For the same molecule, the “AVG ΔCt” value ([4]; B3GNT5) was 8.74, the “Fold Change Test Sample/Control Sample” value ([4]; B3GNT5) was 2.36 and the “Fold Up- or Down-Regulation Test Sample/Control Sample” value ([4]; B3GNT5) was 2.36. The “2^-ΔCt Test Sample” value ([4]; CDKN1C) was 6.1E−04, the “AVG ΔCt” value ([4]; CDKN1C) was 10.69 and the “Fold Change Test Sample/Control Sample” value ([4]; CDKN1C) was 1.24. The “Fold Up- or Down-Regulation Test Sample/Control Sample” value ([4]; CDKN1C) was 1.24, the “2^-ΔCt Test Sample” value ([4]; FUT3) was 3.3E−05 and the “AVG ΔCt” value ([4]; FUT3) was 14.89. For the same molecule, the “Fold Change Test Sample/Control Sample” value ([4]; FUT3) was 1.42, the “Fold Up- or Down-Regulation Test Sample/Control Sample” value ([4]; FUT3) was 1.42 and the “2^-ΔCt Test Sample” value ([4]; FUT4) was 3.6E−05. The “AVG ΔCt” value ([4]; FUT4) was 14.78, the “Fold Change Test Sample/Control Sample” value ([4]; FUT4) was 0.98 and the “Fold Up- or Down-Regulation Test Sample/Control Sample” value ([4]; FUT4) was −1.02. For the same molecule, the “2^-ΔCt Test Sample” value ([4]; FUT5) was 3.3E−05, the “AVG ΔCt” value ([4]; FUT5) was 14.89 and the “Fold Change Test Sample/Control Sample” value ([4]; FUT5) was 1.03. The “Fold Up- or Down-Regulation Test Sample/Control Sample” value ([4]; FUT5) was 1.03, the “2^-ΔCt Test Sample” value ([4]; FUT6) was 9.3E−05 and the “AVG ΔCt” value ([4]; FUT6) was 13.39. For the same molecule, the “Fold Change Test Sample/Control Sample” value ([4]; FUT6) was 3.27, the “Fold Up- or Down-Regulation Test Sample/Control Sample” value ([4]; FUT6) was 3.27 and the “2^-ΔCt Test Sample” value ([4]; FUT7) was 3.0E−04. For the same molecule, the “AVG ΔCt” value ([4]; FUT7) was 11.71, the “Fold Change Test Sample/Control Sample” value ([4]; FUT7) was 10.15 and the “Fold Up- or Down-Regulation Test Sample/Control Sample” value ([4]; FUT7) was 10.15. For the same molecule, the “2^-ΔCt Test Sample” value ([4]; FUT9) was 4.4E−05, the “AVG ΔCt” value ([4]; FUT9) was 14.46 and the “Fold Change Test Sample/Control Sample” value ([4]; FUT9) was 1.92. The “Fold Up- or Down-Regulation Test Sample/Control Sample” value ([4]; FUT9) was 1.92, the “2^-ΔCt Test Sample” value ([4]; GAPDH) was 1.8E+00 and the “AVG ΔCt” value ([4]; GAPDH) was −0.87. The “Fold Change Test Sample/Control Sample” value ([4]; GAPDH) was 1.73, the “Fold Up- or Down-Regulation Test Sample/Control Sample” value ([4]; GAPDH) was 1.73 and the “2^-ΔCt Test Sample” value ([4]; ST3GAL3) was 5.0E−04. For the same molecule, the “AVG ΔCt” value ([4]; ST3GAL3) was 10.95, the “Fold Change Test Sample/Control Sample” value ([4]; ST3GAL3) was 1.07 and the “Fold Up- or Down-Regulation Test Sample/Control Sample” value ([4]; ST3GAL3) was 1.07. The “2^-ΔCt Test Sample” value ([4]; ST3GAL4) was 6.9E−03, the “AVG ΔCt” value ([4]; ST3GAL4) was 7.17 and the “Fold Change Test Sample/Control Sample” value ([4]; ST3GAL4) was 2.78. For the same molecule, the “Fold Up- or Down-Regulation Test Sample/Control Sample” value ([4]; ST3GAL4) was 2.78, the “2^-ΔCt Test Sample” value ([4]; ST3GAL6) was 2.0E−02 and the “AVG ΔCt” value ([4]; ST3GAL6) was 5.66. The “Fold Change Test Sample/Control Sample” value ([4]; ST3GAL6) was 2.55, the “Fold Up- or Down-Regulation Test Sample/Control Sample” value ([4]; ST3GAL6) was 2.55 and the “methylation of CpG sites of the FUT7 promoter region” value [5] was “demethylation”.
